According to PubChem BioAssay (NCI):
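Following 48 hours of exposure in 96-well plates, responses at five concentrations were used to interpolate endpoints linearly. TGI denotes the concentration required for complete inhibition of growth.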

Legend:
Assay in all cases: NCI-60 cell line screen, 48 h
RPMI-8226 leukemia = tested on: RPMI-8226 leukemia
A498 renal = tested on: A498 renal
K-562 leukemia = tested on: K-562 leukemia
NCI-H460 lung = tested on: NCI-H460 lung
MDA-MB-231 breast = tested on: MDA-MB-231 breast
SF-539 CNS = tested on: SF-539 CNS
ACHN renal = tested on: ACHN renal
LOX IMVI melanoma = tested on: LOX IMVI melanoma
HOP-62 NSCLC = tested on: HOP-62 NSCLC
SR leukemia = tested on: SR leukemia
UACC-62 melanoma = tested on: UACC-62 melanoma
MDA-N = tested on: MDA-N
MOLT-4 leukemia = tested on: MOLT-4 leukemia
UACC-257 melanoma = tested on: UACC-257 melanoma
SK-MEL-28 melanoma = tested on: SK-MEL-28 melanoma
RXF 393 renal = tested on: RXF 393 renal
MALME-3M melanoma = tested on: MALME-3M melanoma
SNB-19 CNS = tested on: SNB-19 CNS
NCI/ADR-RES ovarian = tested on: NCI/ADR-RES ovarian
MDA-MB-435 = tested on: MDA-MB-435
HS 578T breast = tested on: HS 578T breast
SF-268 CNS = tested on: SF-268 CNS
NCI-H226 lung = tested on: NCI-H226 lung
TK-10 renal = tested on: TK-10 renal
CAKI-1 renal = tested on: CAKI-1 renal
SW-620 colon = tested on: SW-620 colon
HCC-2998 colon = tested on: HCC-2998 colon
PC-3 prostate = tested on: PC-3 prostate
U251 CNS = tested on: U251 CNS
KM12 colon = tested on: KM12 colon
SK-MEL-5 melanoma = tested on: SK-MEL-5 melanoma
SK-OV-3 ovarian = tested on: SK-OV-3 ovarian
OVCAR-8 ovarian = tested on: OVCAR-8 ovarian
T-47D breast = tested on: T-47D breast
SK-MEL-2 melanoma = tested on: SK-MEL-2 melanoma
DU-145 prostate = tested on: DU-145 prostate
UO-31 renal = tested on: UO-31 renal
M14 melanoma = tested on: M14 melanoma
NCI-H522 lung = tested on: NCI-H522 lung
HL-60(TB) leukemia = tested on: HL-60(TB) leukemia
CCRF-CEM leukemia = tested on: CCRF-CEM leukemia
786-0 renal = tested on: 786-0 renal
OVCAR-5 ovarian = tested on: OVCAR-5 ovarian
BT-549 breast = tested on: BT-549 breast
SN12C renal = tested on: SN12C renal
MCF7 breast = tested on: MCF7 breast
HCT-15 colon = tested on: HCT-15 colon
SF-295 CNS = tested on: SF-295 CNS
NCI-H23 lung = tested on: NCI-H23 lung
EKVX NSCLC = tested on: EKVX NSCLC
HCT-116 colon = tested on: HCT-116 colon
HOP-92 NSCLC = tested on: HOP-92 NSCLC
IGROV1 ovarian = tested on: IGROV1 ovarian
COLO 205 colon = tested on: COLO 205 colon
OVCAR-3 ovarian = tested on: OVCAR-3 ovarian
A549 NSCLC = tested on: A549 NSCLC

Measured: TGI

CC1(C)OC2C(CO)OC(n3ccc(N)nc3=O)C2O1 (stereo unspecified)
> 100 µM: all assays above
